Experimental data from patent publication US20140329754A1, “COMPOSITIONS AND METHODS FOR TREATING MYELODYSPLASTIC SYNDROME” (Telik, Inc., priority 2010, published 2014).
Where a name gives a salt, the structure may show the parent alone.

Legend:
[1] = system: Patients with an International Prognostic System Score (IPSS) Low to Intermediate-1 Risk Myelodysplastic syndrome; test: Clinical study of ezatiostat hydrochloride tablets in IPSS low to intermediate-1 risk MDS patients: hematologic improvement (efficacy); format: in vivo, human; conditions: for Duration of HI-E Response, # Censored / Duration of HI-E Response, # Event: number of responders; for significant RBC transfusion reduction, patients: five of 11 patients; for HI-E Response Rate (95% Confidence Interval): hydrochloride
[2] = Same clinical study: non-hematologic adverse events (safety, all patients treated); format: in vivo, human
Method: Eighty-seven patients were randomized and treated at 23 investigational sites. After initial dose ranging in 14 patients, two dose levels were selected for further study. Subsequently, 37 patients were treated at 3 grams daily for two weeks followed by a one week rest period, and 36 patients were treated at 2 grams daily for three weeks followed by a one week rest period. The data on these 73 patients was pooled for this preliminary analysis.
The safety data is based on all patients treated.

MDS patients = conditions: patients administered lenalidomide; reported; cited from earlier work
[3] = 1 g b.i.d. 3 weeks on & 1 week off
[4] = 1.5 g b.i.d. 2 weeks on & 1 week off

CCOC(=O)[C@@H](N)CCC(=O)N[C@@H](CSCc1ccccc1)C(=O)N[C@@H](C(=O)OCC)c1ccccc1 [Telintra, ezatiostat hydrochloride]
Duration of HI-E Response, # Censored, percent of responders [1, 3]: (66.7%) | Duration of HI-E Response, # Event, percent of responders [1, 3]: (33.3%) | Duration of HI-E Response, Median (95% CI) [1, 3]: 46.1 Weeks | Duration of HI-E Response, Min, Max [1, 3]: 2.4-46.1 Weeks | Time to HI-E Response, Median ([1]; 1 g b.i.d. 3 weeks on & 1 week off (N = 31)): 8.4 Weeks | Time to HI-E Response, Mean ([1]; 1 g b.i.d. 3 weeks on & 1 week off (N = 31), 6 responders): 8.9 Weeks | Duration of HI-E Response, # Censored [1, 3]: 4 | Duration of HI-E Response, # Event [1, 3]: 2 | Duration of HI-E Response, # Censored, percent of responders [1, 4]: (28.6%) | Duration of HI-E Response, # Event, percent of responders [1, 4]: (71.4%) | Duration of HI-E Response, Median (95% CI) [1, 4]: 18.4 Weeks | Duration of HI-E Response, Min, Max [1, 4]: 1.9-51.0 Weeks | Time to HI-E Response, Median ([1]; 1.5 g b.i.d. 2 weeks on & 1 week off (N = 29)): 8.1 Weeks | Time to HI-E Response, Mean ([1]; 1.5 g b.i.d. 2 weeks on & 1 week off (N = 29), 7 responders): 8.4 Weeks | Duration of HI-E Response, # Censored [1, 4]: 2 | Duration of HI-E Response, # Event [1, 4]: 5 | bilineage HI rate (HI-E and HI-N) ([1]; 2 of 19 patients, 95% CI 1.3-33.1): 11% | Hematologic Improvement-Neutrophil (HI-N) rate ([1]; 3 of 20 patients, 95% CI 3.2-37.9): 15% | RBC transfusion independence, patients ([1]; 4 of 38 RBC transfusion-dependent patients): 11% | clinically significant RBC transfusion reduction (reduction of 4U/8 weeks, IWG 2006), patients ([1]; 11 of 38 RBC transfusion-dependent patients): 29% | overall Hematologic Improvement-Erythroid (HI-E) rate ([1]; 13 of 60 evaluable patients, pooled 3 g/day and 2 g/day schedules, 95% CI 12.1-34.2): 22% | median hemoglobin level increase ([1]; in responders): 2.0 gram/dL | increase in response rate ([1]; lenalidomide pre-treated vs not pre-treated patients): over 100% | effect of prior Revlimid treatment on HI-E response ([1]; logistic regression analysis): enhance HI-E response | HI-E rate ([1]; no prior Revlimid, no prior DMTI, 6 of 23 patients, 95% CI 10.2%-48.4%): 26% | significant RBC transfusion reduction, patients ([1]; no prior Revlimid, no prior DMTI): 45% | HI-E rate ([1]; no prior Revlimid, prior DMTI, 0 of 17 patients, 95% CI 0%-19.5%): 0% | complete cytogenetic response (number of patients) ([1]; of the four patients with del 5q minus, one had failed prior Revlimid): two | duration of complete remission following discontinuation of therapy ([1]; one patient): more than 12 months | HI-E Response Rate (95% Confidence Interval) ([1]; patients with no prior Revlimid (lenalidomide) treatment, N=27, efficacy evaluable population): about 22% | HI-E Response Rate (95% Confidence Interval) ([1]; patients with prior Revlimid (lenalidomide) treatment, N=13, efficacy evaluable population): about 46% | median duration of HI-E response ([1]; pooled schedules): 46 weeks | range of duration of HI-E response ([1]; pooled schedules): 2-51 weeks | change in odds for a HI-E response ([1]; prior DMTI treatment, logistic regression, p=0.023): five-fold decrease | HI-E rate ([1]; prior Revlimid, no prior DMTI, 6 of 15 patients, 95% CI 16.3%-67.7%): 40% | significant RBC transfusion reduction, patients ([1]; prior Revlimid, no prior DMTI): 45% | transfusion independence, patients ([1]; prior Revlimid, no prior DMTI, three of 11 patients): 27% | cytogenetic complete responses (number of patients) ([1]; whole study): three | diarrhea, Grade 1 adverse event incidence ([2]; all patients treated): 25% | diarrhea, Grade 2 adverse event incidence ([2]; all patients treated): 7% | diarrhea, Grade 3 adverse event incidence ([2]; all patients treated): 3% | nausea, Grade 1 adverse event incidence ([2]; all patients treated): 45% | nausea, Grade 2 adverse event incidence ([2]; all patients treated): 16% | nausea, Grade 3 adverse event incidence ([2]; all patients treated): 1% | vomiting, Grade 1 adverse event incidence ([2]; all patients treated): 30% | vomiting, Grade 2 adverse event incidence ([2]; all patients treated): 12% | vomiting, Grade 3 adverse event incidence ([2]; all patients treated): 2% | incidence of GI AEs with prior DMTI treatment ([2]; patients with prior DMTI treatment): increased incidence of GI AEs

Nc1cccc2c1CN(C1CCC(=O)NC1=O)C2=O (stereo not drawn) [lenalidomide, 3-(4-amino-l-oxoisoindolin-2-yl)piperidine-2,6-dione]
patients exhibiting clinically recognizable response (MDS patients): about 50%
